Experimental data taken from patent US8361987B2, “DNA vaccines encoding heat shock proteins” (priority 2002, dated 2013).

Key:
lymph node cells (LNC) = test: T-cell proliferation ([methyl-3H]-thymidine incorporation, stimulation index) of cells from vaccinated rats; type: cell-based, Lewis rats; details: for T-cell response to the immunizing peptide: LNC of peptide-vaccinated rats after AA induction
Method: Popliteal and inguinal lymph node cells (LNC) taken 26 days after the induction of AA were cultured in quadruplicates in 200 μl round bottom microtiter wells (Costar Corp., Cambridge, USA) at 2×10^5 cells per well with or without antigen. The T-cell mitogen Concanavalin A (Con A) was used as a positive control for T-cell proliferation. Cultures were incubated for 96 hrs at 37° C. in a humidified atmosphere of 5% CO2. T-cell responses were detected by the incorporation of [methyl-^3H]-thymidine (Amersham, Buckinghamshire, UK; 1 μCi/well), which was added to the wells for the last 18 hours. The stimulation index (SI) was computed as the ratio of the mean c.p.m. of antigen- or mitogen-containing wells to control wells cultured with medium alone.

adjuvant arthritis (AA) [1] = test: Adoptive transfer of Con A-activated splenocytes from peptide-vaccinated rats, then AA induction in recipients; type: in vivo, Lewis rats; details: 5×10^7 Con A-activated splenocytes of peptide-vaccinated donors iv; AA induced three days later
Method: Spleen cells were prepared from peptide-vaccinated rats 26 days after the induction of AA. The splenocytes (10^7 cells per ml) were activated with 2.5 μg/ml of Con A for 48 hr at 37° C. in a humidified atmosphere of 5% CO2. The cells were washed with sterile PBS and injected iv into naïve rats (5×10^7 cells per rat). Three days after the transfer of the splenocytes, AA was induced.
To learn whether the protection triggered by Hu3-vaccination could be adoptively transferred by activated T-cells, splenocytes prepared from Hu3 vaccinated rats were stimulated in vitro for 2 days with the T-cell mitogen Con A, washed, and injected iv (5×10^7 cells per rat) into naïve rats. Only the recipients of cells taken from Hu3-vaccinated rats were protected against the subsequent induction of AA (FIGS. 4A and 4B). […] Thus, inhibition of AA by vaccination with Hu3 could be adoptively transferred by activated T-cells.

adjuvant arthritis (AA) [2] = test: Adjuvant arthritis (AA) induction and assessment after DNA or peptide vaccination; type: in vivo, Lewis rats
Method: Plasmid DNA was prepared in large scale and injected after pretreatment with cardiotoxin (Sigma, Rehovot, Israel). Briefly, rats were vaccinated in the quadriceps three times (on days −40, −26 −12 relative to AA induction) with 150 μg of pcDNA3, pI, pII, pIII, pIV or pV. Endotoxin levels were checked by Limulus Amoebocyte Lysate and found always to be under acceptable levels for in vivo use (less than 0.02 EU/μg DNA). AA was induced 12 days after the last injection of DNA. The empty vector pcDNA3 was used as a DNA vaccination control.
AA was induced using 1 mg per rat of heat-killed Mt strain H37Ra (Difco). The day of AA induction was designated as day 0, and disease severity was assessed by direct observation of all 4 limbs in each animal. A relative score between 0 and 4 was assigned to each limb, based on the degree of joint inflammation, redness and deformity; thus the maximum possible score for an individual animal was 16. Arthritis was also quantified by measuring hind limb diameter with a caliper. Measurements were taken on the day of AA induction and 26 days later, and they are presented as the mean±SEM of the difference between the two values. The person who scored the disease was blinded to the identity of the groups. […]

[3] = tested on: IFNγ, IL-10 and TGFβ1 secretion by LNC; test: Cytokine assays (ELISA of culture supernatants after 72 hrs antigen stimulation); type: cell-based, Lewis rats
Excerpt: Supernatants were collected after 72 hrs of stimulation with each of the antigens tested. Rat IL-10 and IFNγ were quantitated in culture supernatants by enzyme-linked immunosorbent assay (ELISA) using Pharmingen's OPTEIA kit (Pharmingen, San Diego, USA). Rat TGFβ1 was quantified using the TGFβ1 Emax® ImmunoAssay System (Promega, Madison, USA) according to the manufacturer's instructions. Cytokine levels in supernatants are expressed as pg/ml based on calibration curves constructed using recombinant cytokines as standards. The lower limits of detection for the experiments described in this paper were 15 pg/ml for TGFβ1, IL-10 and IFNγ.

[4] = LNC day 26 after AA induction, 72 hr
[5] = LNC of peptide-vaccinated rats, day 26 after AA induction

| Sequence | T-cell response to the immunizing peptide (lymph node cells (LNC)) | T-cell response to the immunizing peptide (lymph node cells (LNC); listed as HU12) | protection of recipients against subsequent induction of AA (adjuvant arthritis (AA) [1]) | ankle swelling (adjuvant arthritis (AA) [2]; peptide vaccination 100 μg in IFA day −7, day 26 after AA induction, vs 32.2±3.5 in PBS/IFA, p=0.02) | AA disease severity after peptide vaccination (adjuvant arthritis (AA) [2]; single i.p. dose of 100 μg peptide in IFA on day −7, compared to non-immunized rats or PBS, Hu12 or Mt3) | T-cell proliferative responses to both self- and mycobacterial antigens (lymph node cells (LNC); LNC day 26 after AA induction) | proliferative response to HSP60 (lymph node cells (LNC); LNC day 26 after AA induction) | proliferative response to control peptide Hu12 (lymph node cells (LNC); LNC day 26 after AA induction) | proliferative response to Hu3 (lymph node cells (LNC); LNC day 26 after AA induction, stimulated in vitro with Hu3) | T-cell proliferative responses to mycobacterial antigens (PPD, HSP65, Mt176-190) (lymph node cells (LNC); LNC day 26 after AA induction, relative to controls) | IFNγ secretion upon stimulation with mycobacterial antigens (PPD, HSP65, Mt176-190) [3, 4] | IL-10 secretion upon stimulation with mycobacterial antigens (PPD, HSP65, Mt176-190) [3, 4] | TGFβ1 secretion upon stimulation with mycobacterial antigens (PPD, HSP65, Mt176-190) [3, 4] | secretion of IFNγ, stimulated with Hu3 ([3]; LNC day 26 after AA induction, relative to respective controls (FIG. 12B)) | cytokine response to whole HSP60 [3, 5] | cytokines secreted in response to Hu3 [3, 5] |
| --- | --- | --- | --- | --- | --- | --- | --- | --- | --- | --- | --- | --- | --- | --- | --- | --- |
| EEIAQVATISANGDKEIGNI [Hu12, human HSP60 peptide 166-185, control peptide, reference compound] | significant and specific T-cell responses | proliferated | – | – | – | – | – | – | – | – | – | – | – | – | – | – |
| AYDEEARRGLERGLNALADA [Mt3, mycobacterial HSP65 peptide, counterpart of Hu3, reference compound] | significant and specific T-cell responses | – | No protection | – | – | – | – | – | – | – | – | – | – | – | – | – |
| KFGADARALMLQGVDLLADA (listed as Homo sapiens) [Hu3] | significant and specific T-cell responses | – | protected | 14.2±4.7 | significantly decreased disease | up-regulation | induction of a specific response | no responses | recognized | up-regulated | reduction | increase | increase | increased | predominantly TFGβ1 | secreted IFNγ, IL-10 and TGFβ1 |
